Test results: patent US20170101669A1, “Nucleic Acid Based Sensor and Methods Thereof” (National Centre for Biological Sciences, priority 2014, published 2017)

Key:
[1] = test system: endosomal compartments of Drosophila hemocytes; test: Chloride concentration in endosomal compartments of hemocytes under chemical perturbation, measured with Clensor; format: cell-based; conditions: +NPPB
Protocol: Hemocytes are washed with 1×M1 buffer (150 mM NaCl, […], 1 mM CaCl2, 1 mM MgCl2, 20 mM HEPES pH 7.2) prior to labeling. Hemocytes are incubated with 2 μM of Clensor sample (diluted in 1×M1 buffer) for 5-10 minutes (depending on the signal again, *for measurements in early endosomes 5 min pulse is given*) and then washed 3-4 times with 1×M1 and then chased for an additional 5 to 120 minutes. For a chase longer than 5 minutes, 1×M1 is replaced by complete insect medium and transferred to a 20° C. incubator. For 5 minute chases, cells are washed and then imaged in 1×M1.
For Chloride ion […] measurement experiments, after pulsing with Clensor, cells are chased for (i) 5 min (Early Endosome), (ii) 60 min (Late endosome) and (iii) 120 min (Lysosome). Each set of cells are then imaged live, acquiring two images for each set of cells. (i) Ex=480/20, Dichroic=500-600 BP, Em=535/40 and (ii) Ex=640/30, Dichroic=665 LP, Em=690/50.
Hemocytes are pulsed with 2 μM of Clensor sample for 30 minutes (for development of a signal), washed 3-4 times with 1×M1 followed by a 5 minute chase in same medium. Cells are then fixed with 200 μL 2.5% paraformaldehyde (PFA) for 20 minutes at room temperature, quickly washed 3 times and retained in 1×M1. To obtain intracellular Chloride ion (Cl^−) calibration curve, perfusate and endosomal Chloride ion (Cl^−) concentration are equalized by incubating the previously fixed cells in 120 mM KCl/KNO3, 20 mM NaCl/NaNO3, 1 mM CaCl2/Ca(NO3)2, 1 mM MgCl2/Mg(NO3)2, and 10 mM HEPES at pH 7.2, with Chloride ion (Cl^−) concentration from about 0-80 mM (NO3^− replacing Cl^−) for about 3 hours at room temperature. Chloride clamping solution contains Nigericin (10 μM)+Valinomycin (10 μM)+CCCP (5 μM)+Monensin (10 μM)+Bafilomycin (200 nM). The cells are imaged in the same buffer.
Here, the hemocytes are treated with a non-specific chloride ion channel blocker NPPB (5-nitro-2-(3-phenylpropylamino)-benzoate).

Drosophila hemocytes = test: Bafilomycin perturbation of endosomal chloride concentration and pH in hemocytes; format: cell-based
Protocol: Bafilomycin is used to perturb endosomal Chloride ion concentration [Cl^−] and these perturbations are followed by changes in R/G ratios in Clensor labeled endosomes of Drosophila hemocytes. pH is simultaneously measured in this system by pulsing with about 2 mg/mL 10 kDa FITC-dextran (FD10) for about 5 minutes at room temperature and chased for about 120 minutes at about 20° C. The cells are then incubated with 1×M1 buffer containing about 200 nM Bafilomycin followed by a 120 minute chase at about 20° C. in the same buffer.
Intracellular pH is measured by the Dual Excitation Method. λEx480/λEx 430 emission ratios show about 2.1 fold decrease in pH as a function of time till about 120 minutes post endocytosis, indicating the expected decrease in pH in hemocytes (FIG. 16a, black). Upon Bafilomycin treatment, endosomal pH is reversed as given by gradual increase (˜2.2 fold) in λEx480/λEx 430 emission ratios (FIG. 16a, black). […]
FIG. 16 depicts the integrity of Clensor during endosomal maturation. […] Chloride concentrations and pH values are monitored after Bafilomycin treatment. […] Endosomal pH is monitored by ratios of the intensity at 530 nm when the FITC is excited at 480 nm and 430 nm (λex480/λex 430). […]

Which results are given for `O=C(O)c1cc([N+](=O)[O-])ccc1NCCCc1ccccc1` [NPPB, 5-nitro-2-(3-phenylpropylamino)-benzoate]?
Mean [Cl−] ± s.e.m, EE ([1]; early endosomes, 5 min): 9.3 ± 1.5 mM; Mean [Cl−] ± s.e.m, LE ([1]; late endosomes, 60 min): 33.8 ± 2.5 mM; Mean [Cl−] ± s.e.m, LY ([1]; lysosomes, 120 min): 86.5 ± 3.5 mM

Which results are given for Bafilomycin?
increase in λEx480/λEx 430 emission ratios (reversal of endosomal pH) (Drosophila hemocytes; 200 nM Bafilomycin, FITC-dextran labeled hemocytes, after 120 min chase): ~2.2 fold; change of R/G ratios of Clensor labeled endosomes (endosomal [Cl−]) (Drosophila hemocytes; after 200 nM Bafilomycin treatment): R/G ratios gradually decrease
